molecular target: T1, P2Y purinoceptor 14 (Homo sapiens, UniProt Q15391); experiment: Agonist activity at human P2Y14 receptor expressed in […] cells; type: functional, cell-based, COS-7; conditions: not given
T1 sequence (Q15391 whole entry): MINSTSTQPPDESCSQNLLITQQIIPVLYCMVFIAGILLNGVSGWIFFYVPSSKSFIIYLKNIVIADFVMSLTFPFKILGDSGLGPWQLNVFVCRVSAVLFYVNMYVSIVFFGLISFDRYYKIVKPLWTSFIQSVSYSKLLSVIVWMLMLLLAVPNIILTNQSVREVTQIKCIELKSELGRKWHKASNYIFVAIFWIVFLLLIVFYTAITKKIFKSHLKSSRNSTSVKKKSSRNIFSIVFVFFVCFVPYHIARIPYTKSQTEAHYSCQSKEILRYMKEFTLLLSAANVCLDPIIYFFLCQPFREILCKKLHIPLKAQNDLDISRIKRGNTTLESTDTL

| Compound | EC50 |
| --- | --- |
| O=c1ccn([C@@H]2O[C@H](COP(=O)(O)OP(=O)(O)OC[C@H]3O[C@H](O)[C@H](O)[C@@H]3O)[C@@H](O)[C@H]2O)c(=O)[nH]1 | 0.238 µM |
| CC(=O)NCCNC(=O)[C@H]1O[C@H](OP(=O)(O)OP(=O)(O)OC[C@H]2O[C@@H](n3ccc(=O)[nH]c3=O)[C@H](O)[C@@H]2O)[C@H](O)[C@@H](O)[C@@H]1O | 0.496 µM |
| O=c1ccn([C@@H]2O[C@H](COP(=O)(O)OP(=O)(O)OC[C@H]3O[C@H](O)[C@@H](O)[C@@H](O)[C@@H]3O)[C@@H](O)[C@H]2O)c(=O)[nH]1 | 0.658 µM |
| CC(C)(C)OC(=O)NCCNC(=O)[C@H]1O[C@H](OP(=O)(O)OP(=O)(O)OC[C@H]2O[C@@H](n3ccc(=O)[nH]c3=O)[C@H](O)[C@@H]2O)[C@H](O)[C@@H](O)[C@@H]1O | 0.951 µM |
| O=c1ccn([C@@H]2O[C@H](COP(=O)(O)OP(=O)(O)OC[C@H]3O[C@H](O)[C@@H](O)[C@@H]3O)[C@@H](O)[C@H]2O)c(=O)[nH]1 | 0.46 µM |
| O=c1ccn([C@@H]2O[C@H](COP(=O)(O)OP(=O)(O)OC[C@H]3O[C@](O)(CO)[C@@H](O)[C@@H]3O)[C@@H](O)[C@H]2O)c(=O)[nH]1 | 0.323 µM |

Now from value to molecule:

| EC50 | Compound |
| --- | --- |
| 1.88 µM | O=c1ccn([C@@H]2O[C@H](COP(=O)(O)OP(=O)(O)O[C@@H]3[C@H](O)[C@H](O)[C@@H](O)[C@H](O)[C@H]3O)[C@@H](O)[C@H]2O)c(=O)[nH]1 |
| 0.562 µM | C[C@H]1O[C@H](OP(=O)(O)OP(=O)(O)OC[C@H]2O[C@@H](n3ccc(=O)[nH]c3=O)[C@H](O)[C@@H]2O)[C@H](O)[C@@H](O)[C@H]1O |
| 0.373 µM | O=c1ccn([C@@H]2O[C@H](COP(=O)(O)OP(=O)(O)OC[C@H]3O[C@H](O)[C@H](O)[C@@H](O)[C@@H]3O)[C@@H](O)[C@H]2O)c(=O)[nH]1 |
| 0.905 µM | O=c1ccn([C@@H]2O[C@H](COP(=O)(O)OP(=O)(O)O[C@H]3O[C@H](CF)[C@@H](O)[C@H](O)[C@H]3O)[C@@H](O)[C@H]2O)c(=O)[nH]1 |
| 2.5 µM | O=c1ccn([C@@H]2O[C@H](COP(=O)(O)OP(=O)(O)O[C@H]3O[C@H](CO)[C@@H](O)[C@H](O)[C@H]3F)[C@@H](O)[C@H]2O)c(=O)[nH]1 |
| 0.361 µM | O=c1ccn([C@@H]2O[C@H](COP(=O)(O)OP(=O)(O)O[C@H]3O[C@H](CO)[C@@H](O)[C@H](F)[C@H]3O)[C@@H](O)[C@H]2O)c(=O)[nH]1 |
| 0.567 µM | O=c1ccn([C@@H]2O[C@H](COP(=O)(O)OP(=O)(O)O[C@H]3O[C@H](CO)[C@@H](F)[C@H](O)[C@H]3O)[C@@H](O)[C@H]2O)c(=O)[nH]1 |
| 0.29 µM | O=c1[nH]c(=S)ccn1[C@@H]1O[C@H](COP(=O)(O)OP(=O)(O)O[C@H]2O[C@H](CO)[C@@H](O)[C@H](O)[C@H]2O)[C@@H](O)[C@H]1O |

molecular target: T2, P2Y purinoceptor 14 (Homo sapiens) (UniProt Q15391); experiment: Agonist activity at human P2Y14 receptor expressed in […] cells at 10 uM; type: functional, cell-based; conditions: COS-7
T2 sequence (whole entry): T1 sequence (Q15391 whole entry)

| Compound | Efficacy |
| --- | --- |
| CC(=O)N[C@@H]1[C@@H](O)[C@H](O)[C@@H](CO)O[C@@H]1CP(=O)(O)OP(=O)(O)OC[C@H]1O[C@@H](n2ccc(=O)[nH]c2=O)[C@H](O)[C@@H]1O | < 50% |
| O=c1ccn([C@@H]2O[C@H](COP(=O)(O)OP(=O)(O)OC[C@H]3O[C@H](O)C[C@@H](O)[C@@H]3O)[C@@H](O)[C@H]2O)c(=O)[nH]1 | < 50% |

The remaining lines, values ahead:

| Efficacy | Compound |
| --- | --- |
| < 20% | O=c1ccn([C@@H]2C[C@H](COP(=O)(O)OP(=O)(O)O[C@H]3O[C@H](CO)[C@@H](O)[C@H](O)[C@H]3O)[C@@H](O)[C@H]2O)c(=O)[nH]1 |
| < 50% | CO/N=c1/ccn([C@@H]2O[C@H](COP(=O)(O)OP(=O)(O)O[C@H]3O[C@H](CO)[C@@H](O)[C@H](O)[C@H]3O)[C@@H](O)[C@H]2O)c(=O)[nH]1 |

From ChEMBL document CHEMBL1152500, “Molecular recognition in the P2Y(14) receptor: Probing the structurally permissive terminal sugar moiety of uridine-5'-diphosphoglucose” (Bioorg Med Chem, 2009)
